Earlier results in patent US20100247645A1 (priority 2007, published 2010).

Details: class 3 = high solubility, low permeability

COCCCOc1cc(C[C@@H](C[C@H](N)[C@@H](O)C[C@H](C(=O)NCC(C)(C)C(N)=O)C(C)C)C(C)C)ccc1OC [Aliskiren, 2(S),4(S),5(S),7(S)—N-(3-amino-2,2-dimethyl-3-oxopropyl)-2,7-di(1-methylethyl)-4-hydroxy-5-amino-8-[4-methoxy-3-(3-methoxy-propoxy)phenyl]-octanamide]
BCS (biopharmaceutical classification system) class: class 3
